How the values were obtained:
[1] = system: phosphorylation of Chk1 (Ser 345) in HT29 colon adenocarcinoma cells; assay: pCHK1 cellular assay; format: cell-based; details: Homo sapiens, HT-29, hydroxyurea 3 mM, 4 h
From the text: Chk1 kinase acts downstream of ATR and has a key role in DNA damage checkpoint control. Activation of Chk1 involves phosphorylation of Ser317 and Ser345 (regarded as the preferential target for phosphorylation/activation by ATR) and occurs in response to blocked DNA replication and certain forms of genotoxic stress. Phosphorylation at Ser 345 serves to localize Chk1 to the nucleus following checkpoint activation.
This assay measures a decrease in phosphorylation of Chk1 (Ser 345) in HT29 colon adenocarcinoma cells following treatment with compound and hydroxyurea (which promotes fork stalling because of dNTP depletion) and using an immunocytochemical procedure and high content imaging.
For the assay HT29 cells are plated in culture medium (DMEM high Glucose (no phenol red), 2 mM Glutamax, 1 mM Pyruvate, 10% FCS into Greiner 384 well plates, black, μclear #781090 (2500 cells/well/30 μl) and incubated for at least 20 hours at 37° C., 10% CO2 and 90% rH. Diluted test compounds (1 nM-30 μM final) and hydroxyurea (3 mM final) are added simultaneously and cells are incubated for 4 h at 37° C. After fixation/prmeabilisation with 100% MeOH (−20° C. cold) and permeabilisation with 0.2% Triton X-100 a complete immunocytochemical procedure is performed using a specific anti-pChk1 antibody (Cell Signaling, #2348BF) and fluorescently labelled secondary antibody (Alexa Fluor® 488 goat anti-rabbit F(ab′)2 fragment, Invitrogen A11070) and parallel nuclear staining for cell counting.
The nuclear localised pChk1 signal is detected on an ImageXpress Ultra confocal high content reader and reported as % positive cells (nuclei).

ATR/ATRIP = ATR/ATRIP (Homo sapiens (Human), UniProt Q13535); assay: ATR/ATRIP kinase assay (TR-FRET, p53 Ser15 phosphorylation); format: biochemical; details: 0.5 μM ATP, 50 nM p53
ATR/ATRIP, sequence (Q13535 whole entry): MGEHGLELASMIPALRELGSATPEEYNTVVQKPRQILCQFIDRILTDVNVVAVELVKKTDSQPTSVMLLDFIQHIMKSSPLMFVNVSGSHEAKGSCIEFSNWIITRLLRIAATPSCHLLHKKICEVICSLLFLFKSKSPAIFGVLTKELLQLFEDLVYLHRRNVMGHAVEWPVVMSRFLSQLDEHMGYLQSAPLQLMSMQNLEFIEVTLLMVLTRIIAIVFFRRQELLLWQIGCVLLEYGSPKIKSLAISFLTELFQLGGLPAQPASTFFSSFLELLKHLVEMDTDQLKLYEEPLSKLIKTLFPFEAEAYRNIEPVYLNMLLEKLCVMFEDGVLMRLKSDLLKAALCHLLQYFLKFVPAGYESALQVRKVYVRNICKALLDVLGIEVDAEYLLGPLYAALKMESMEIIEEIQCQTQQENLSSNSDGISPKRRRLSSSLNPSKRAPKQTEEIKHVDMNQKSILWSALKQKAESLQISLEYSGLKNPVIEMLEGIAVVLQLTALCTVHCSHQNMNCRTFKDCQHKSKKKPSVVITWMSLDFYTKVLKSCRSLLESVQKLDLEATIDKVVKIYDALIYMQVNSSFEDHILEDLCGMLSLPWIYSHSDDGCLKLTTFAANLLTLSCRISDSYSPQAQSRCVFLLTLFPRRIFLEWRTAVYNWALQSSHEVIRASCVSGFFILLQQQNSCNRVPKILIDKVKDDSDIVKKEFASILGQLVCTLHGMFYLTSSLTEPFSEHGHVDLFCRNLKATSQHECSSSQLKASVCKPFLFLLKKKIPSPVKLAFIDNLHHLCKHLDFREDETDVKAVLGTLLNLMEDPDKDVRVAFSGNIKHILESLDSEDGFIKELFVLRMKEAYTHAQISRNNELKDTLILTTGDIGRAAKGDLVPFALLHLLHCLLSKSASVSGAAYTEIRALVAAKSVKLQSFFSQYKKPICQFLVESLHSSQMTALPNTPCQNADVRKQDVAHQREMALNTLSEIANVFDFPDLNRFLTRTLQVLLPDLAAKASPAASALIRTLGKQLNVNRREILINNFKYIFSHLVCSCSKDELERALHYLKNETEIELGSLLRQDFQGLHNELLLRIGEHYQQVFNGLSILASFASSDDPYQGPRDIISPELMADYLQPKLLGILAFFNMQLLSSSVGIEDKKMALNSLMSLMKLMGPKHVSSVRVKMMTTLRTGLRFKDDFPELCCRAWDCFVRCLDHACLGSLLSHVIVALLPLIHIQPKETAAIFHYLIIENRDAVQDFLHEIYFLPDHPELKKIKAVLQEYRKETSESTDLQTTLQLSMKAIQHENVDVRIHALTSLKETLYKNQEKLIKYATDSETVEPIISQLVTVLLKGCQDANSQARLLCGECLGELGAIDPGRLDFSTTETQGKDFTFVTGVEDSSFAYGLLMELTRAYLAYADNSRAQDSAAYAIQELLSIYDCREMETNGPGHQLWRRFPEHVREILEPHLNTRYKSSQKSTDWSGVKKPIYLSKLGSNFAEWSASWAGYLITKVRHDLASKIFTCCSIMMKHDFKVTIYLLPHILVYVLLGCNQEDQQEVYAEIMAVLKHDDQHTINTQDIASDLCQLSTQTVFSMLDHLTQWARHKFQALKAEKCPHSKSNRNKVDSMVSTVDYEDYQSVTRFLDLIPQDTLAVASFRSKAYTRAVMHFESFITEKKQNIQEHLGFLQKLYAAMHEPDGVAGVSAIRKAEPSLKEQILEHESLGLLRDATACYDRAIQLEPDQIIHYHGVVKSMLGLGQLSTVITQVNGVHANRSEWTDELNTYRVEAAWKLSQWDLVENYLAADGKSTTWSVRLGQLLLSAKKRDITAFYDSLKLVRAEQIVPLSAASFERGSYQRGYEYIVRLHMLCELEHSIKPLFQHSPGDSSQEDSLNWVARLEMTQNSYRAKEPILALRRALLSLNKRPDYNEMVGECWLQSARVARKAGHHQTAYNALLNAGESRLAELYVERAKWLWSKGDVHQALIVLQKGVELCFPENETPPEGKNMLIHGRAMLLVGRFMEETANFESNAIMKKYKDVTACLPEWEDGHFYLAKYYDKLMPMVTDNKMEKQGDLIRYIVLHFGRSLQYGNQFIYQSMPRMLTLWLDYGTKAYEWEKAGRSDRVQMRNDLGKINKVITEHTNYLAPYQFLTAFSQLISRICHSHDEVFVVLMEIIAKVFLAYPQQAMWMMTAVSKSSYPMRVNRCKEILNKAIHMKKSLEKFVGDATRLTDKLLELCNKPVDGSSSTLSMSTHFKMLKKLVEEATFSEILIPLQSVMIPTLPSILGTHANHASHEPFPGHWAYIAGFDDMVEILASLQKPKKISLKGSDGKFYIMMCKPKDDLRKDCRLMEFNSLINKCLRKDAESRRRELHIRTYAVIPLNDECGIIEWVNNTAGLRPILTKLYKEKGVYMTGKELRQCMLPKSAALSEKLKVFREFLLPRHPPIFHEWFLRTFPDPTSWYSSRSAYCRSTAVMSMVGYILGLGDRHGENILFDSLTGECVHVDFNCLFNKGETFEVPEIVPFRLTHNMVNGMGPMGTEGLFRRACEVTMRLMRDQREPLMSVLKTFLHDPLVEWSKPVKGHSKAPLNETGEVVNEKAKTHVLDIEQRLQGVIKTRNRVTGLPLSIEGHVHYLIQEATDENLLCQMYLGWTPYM
ATR/ATRIP, sequence (Q8WXE1 whole entry partner): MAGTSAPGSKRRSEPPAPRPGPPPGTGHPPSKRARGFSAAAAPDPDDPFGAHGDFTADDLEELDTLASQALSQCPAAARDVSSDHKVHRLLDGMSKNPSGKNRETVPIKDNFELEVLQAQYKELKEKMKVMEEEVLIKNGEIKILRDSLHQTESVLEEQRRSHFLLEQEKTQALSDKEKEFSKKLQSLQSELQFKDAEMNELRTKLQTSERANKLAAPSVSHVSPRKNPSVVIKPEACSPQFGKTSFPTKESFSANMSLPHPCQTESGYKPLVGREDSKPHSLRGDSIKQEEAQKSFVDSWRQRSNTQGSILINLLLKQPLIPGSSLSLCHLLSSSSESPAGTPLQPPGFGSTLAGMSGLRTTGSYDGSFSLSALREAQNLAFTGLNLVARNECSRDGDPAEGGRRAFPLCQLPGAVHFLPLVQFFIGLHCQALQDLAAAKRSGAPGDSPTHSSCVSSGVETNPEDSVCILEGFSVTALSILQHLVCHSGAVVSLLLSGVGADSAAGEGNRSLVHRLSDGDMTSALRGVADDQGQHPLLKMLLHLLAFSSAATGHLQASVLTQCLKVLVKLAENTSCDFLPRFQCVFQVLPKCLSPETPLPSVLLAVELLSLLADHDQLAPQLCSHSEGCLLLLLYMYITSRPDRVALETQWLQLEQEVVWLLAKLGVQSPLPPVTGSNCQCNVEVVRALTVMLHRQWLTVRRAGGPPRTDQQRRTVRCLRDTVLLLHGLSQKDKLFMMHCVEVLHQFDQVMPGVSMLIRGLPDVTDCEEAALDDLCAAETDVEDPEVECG
Description: ATR/ATRIP Kinase Assay—Measurement of ATR/ATRIP Inhibition
The IC50 value was determined by an ATR/ATRIP enzymatic assay. The assay comprises two steps: the enzymatic reaction and the detection step. First, a mixture of ATR/ATRIP protein (Ataxia Telangiectasia and Rad3-related protein/ATR interacting protein), the compound in question at different concentrations, p53 as substrate protein and adenosine triphosphate (ATP) are incubated in assay buffer. ATR phosporylates p53 at Ser15 and other residues. The amount of phosphorylated p53 is then detected using specific antibodies and the TR-FRET assay technology.
In detail: The ATR/ATRIP enzymatic assay is performed as a TR-FRET-(HTRF™, Cisbio Bioassays) based 384-well assay. In a first step, purified human recombinant ATR/ATRIP (human ATR, full length, GenBank ID: NM_001184.3, and human ATRIP, full length, GenBank ID AF451323.1, co-expressed in a mammalian cell line) is incubated in assay buffer for 15 minutes at 22° C. with test compound at different concentrations or without test compound (as a negative control). The assay buffer contains 25 mM HEPES pH 8.0, 10 mM Mg(CH3COO)2, 1 mM MnCl2, 0.1% BSA, 0.01% Brij® 35, and 5 mM dithiothreitol (DTT). An Echo 555 (Labcyte) is used for dispensing of compound solutions. Then, in a second step, purified human recombinant cmyc-tagged p53 (human p53, full length, GenBank ID: BC003596, expressed in Sf21 insect cells) and ATP are added and the reaction mixture is incubated for 25-35 minutes, typically 25 minutes, at 22° C. The pharmacologically relevant assay volume is 5 μl. The final concentrations in the assay during incubation of the reaction mixture are 0.3-0.5 nM, typically 0.3 nM, ATR/ATRIP, 50 nM p53, and 0.5 μM ATP. The enzymatic reaction is stopped by the addition of EDTA. The generation of phosphorylated p53 as a result of the ATR mediated reaction in the presence of ATP is detected by using specific antibodies [labeled with the fluorophores europium (Eu) as donor and d2 as acceptor (Cisbio Bioassays)] enabling FRET. For this purpose, 2 μl of antibody-containing stop solution (12.5 mM HEPES pH 8.0, 125 mM EDTA, 30 mM sodium chloride, 300 mM potassium fluoride, 0.006% Tween-20, 0.005% Brij® 35, 0.21 nM anti-phospho-p53(Ser15)-Eu antibody, 15 nM anti-cmyc-d2 antibody) are added to the reaction mixture. Following signal development for 2 h the plates are analyzed in an EnVision (PerkinElmer) microplate reader using the TRF mode with laser excitation. Upon excitation of the donor europium at 340 nm the emitted fluorescence light of the acceptor d2 at 665 nm as well as from the donor Eu at 615 nm are measured. The amount of phosphorylated p53 is directly proportional to the ratio of the amounts of emitted light i.e. the ratio of the relative fluorescence units (rfu) at 665 nm and 615 nm. Data are processed employing the Genedata Screener software. In particular, IC50 values are determined in the usual manner by fitting a dose-response curve to the data points using nonlinear regression analysis. • IC50=half maximal inhibitory concentration • ATP=Adenosine triphosphate • TR-FRET=Time-Resolved Fluorescence Resonance Energy Transfer • HTRF®=Homogeneous Time Resolved Fluorescence • HEPES=2-(4-(2-Hydroxyethyl)-1-piperazinyl)-ethanesulfonic acid • Mg(CH3COO)2=Magnesium acetate • MnCl2=Manganese(II)-chloride • BSA=Bovine Serum Albumin • EDTA=Ethylendiamine Tetraacetate • TRF=Time Resolved Fluorescence pCHK1 Cellular Assay

SMILES	IC50 [1] [nM]	IC50 (ATR/ATRIP) [nM]
C[C@@H]1COCCN1c1cc(-c2cccc(S(C)(=O)=O)c2)c2c(n1)c(-c1ccn[nH]1)nn2C [Compound 76, (3R)-4-[7-(3-Methanesulfonylphenyl)-1-methyl-3-(1H-pyrazol-5-yl)-1H-pyrazolo[4,3-b]pyridin-5-yl]-3-methylmorpholine]	100 to 1000	28
Cc1nc(S(C)(=O)=O)ccc1-c1cc(N2CCOC[C@H]2C)nc2c(-c3cc[nH]n3)n[nH]c12 [Compound 12, 7-(6-Methanesulfonyl-2-methyl-pyridin-3-yl)-5-((R)-3-methyl-morpholin-4-yl)-3-(1H-pyrazol-3-yl)-1H-pyrazolo[4,3-b]pyridine]	100 to 1000	0.8
C[C@@H]1COCCN1c1cc(-c2ccc(C(F)(F)F)nc2)c2c(n1)c(-c1cc[nH]n1)nn2C [Compound 65, (3R)-3-Methyl-4-[1-methyl-3-(1H-pyrazol-3-yl)-7-[6-(trifluoro-methyl)pyridin-3-yl]-1H-pyrazolo[4,3-b]pyridin-5-yl]morpholine]	100 to 1000	5.8
Cc1nc([S@@+](C)[O-])ccc1-c1cc(N2CCOC[C@H]2C)nc2c(-c3cc[nH]n3)nn(C)c12 [Compound 10, (3R)-4-(7-{6-[(R)-Methanesulfinyl]-2-methylpyridin-3-yl}-1-methyl-3-(1H-pyrazol-3-yl)-1H-pyrazolo[4,3-b]pyridin-5-yl)-3-methylmorpholine]	10 to 100	1.9
C[C@@H]1COCCN1c1ccc2c(n1)c(-c1cc[nH]n1)nn2Cc1cccc(S(C)(=O)=O)c1 [Compound 57, (3R)-4-{1-[(3-Methanesulfonylphenyl)methyl]-3-(1H-pyrazol-3-yl)-1H-pyrazolo[4,3-b]pyridin-5-yl}-3-methylmorpholine]	1000 to 10000	150
Cc1nc(S(C)(=O)=O)ccc1-c1cc(N2CCOC[C@H]2C)nc2c(-c3cc(C(F)(F)F)n[nH]3)nn(C)c12 [Compound 74, (3R)-4-[7-(6-Methanesulfonyl-2-methylpyridin-3-yl)-1-methyl-3-[3-(trifluoromethyl)-1H-pyrazol-5-yl]-1H-pyrazolo[4,3-b]pyridin-5-yl]-3-methyl-morpholine]		17
C[C@@H]1COCCN1c1cc(-c2ccccn2)c2c(n1)c(-c1cc[nH]n1)nn2C [Compound 58, (3R)-3-Methyl-4-[1-methyl-3-(1H-pyrazol-3-yl)-7-(pyridin-2-yl)-1H-pyrazolo[4,3-b]pyridin-5-yl]morpholine]	100 to 1000	10
C[C@@H]1COCCN1c1cc(C2=CC[S+]([O-])CC2)c2c(n1)c(-c1ccn[nH]1)nn2C (stereo partly drawn) [Compound 80, 4-[1-Methyl-5-[(3R)-3-methylmorpholin-4-yl]-3-(1H-pyrazol-5-yl)-1H-pyrazolo[4,3-b]pyridin-7-yl]-3,6-dihydro-2H-1lambda4-thiopyran-1-one]	100 to 1000	
C[C@@H]1COCCN1c1cc(C(=O)N(C)C)c2[nH]nc(-c3cc[nH]n3)c2n1 [Compound 27, 5-((R)-3-Methyl-morpholin-4-yl)-3-(1H-pyrazol-3-yl)-1H-pyrazolo[4,3-b]pyridine-7-carboxylic acid dimethylamide]	100 to 1000	10
CC(C)n1nc(-c2cc[nH]n2)c2nc(N3CCOC[C@H]3C)ccc21 [Compound 73, (3R)-3-Methyl-4-[1-(propan-2-yl)-3-(1H-pyrazol-3-yl)-1H-pyrazolo[4,3-b]pyridin-5-yl]morpholine]	100 to 1000	28
Cc1cc(S(C)(=O)=O)ncc1-c1cc(N2CCOC[C@H]2C)nc2c(-c3cc[nH]n3)n(C)nc12 [Compound 21, 7-(6-Methanesulfonyl-4-methyl-pyridin-3-yl)-2-methyl-5-((R)-3-methyl-morpholin-4-yl)-3-(1H-pyrazol-3-yl)-2H-pyrazolo[4,3-b]pyridine]		510
C[C@@H]1COCCN1c1ccc2c(n1)c(-c1cc[nH]n1)nn2-c1cccc(C#N)c1 [Compound 53, 3-[5-((3R)-3-Methyl-morpholin-4-yl)-3-(1H-pyrazol-3-yl)-1H-pyrazolo[4,3-b]pyridin-1-yl]-benzonitrile]	1000 to 10000	58
C[C@@H]1COCCN1c1cc(C(N)=O)c2[nH]nc(-c3cc[nH]n3)c2n1 [Compound 29, 5-((R)-3-Methyl-morpholin-4-yl)-3-(1H-pyrazol-3-yl)-1H-pyrazolo[4,3-b]pyridine-7-carboxylic acid amide]	1000 to 10000	5.4
C[C@@H]1COCCN1c1cc(O)c2c(n1)c(-c1ccn[nH]1)nn2C [Compound 45, 1-Methyl-5-((R)-3-methyl-morpholin-4-yl)-3-(2H-pyrazol-3-yl)-1H-pyrazolo[4,3-b]pyridin-7-ol]		1800
C[C@@H]1COCCN1c1ccc2c(n1)c(-c1cc[nH]n1)nn2Cc1cccnc1 [Compound 83, (3R)-3-Methyl-4-[3-(1H-pyrazol-3-yl)-1-[(pyridin-3-yl)methyl]-1H-pyrazolo[4,3-b]pyridin-5-yl]morpholine]	1000 to 10000	
C[C@@H]1COCCN1c1cc(C2=CCSCC2)c2c(n1)c(-c1ccn[nH]1)nn2C [Compound 79, (3R)-4-[7-(3,6-Dihydro-2H-thiopyran-4-yl)-1-methyl-3-(1H-pyrazol-5-yl)-1H-pyrazolo[4,3-b]pyridin-5-yl]-3-methylmorpholine]	10 to 100	
Cc1c(-c2cc(N3CCOC[C@H]3C)nc3c(-c4cc[nH]n4)nn(C)c23)nnn1C [Compound 84, (3R)-4-[7-(1,5-Dimethyl-1H-1,2,3-triazol-4-yl)-1-methyl-3-(1H-pyrazol-3-yl)-1H-pyrazolo[4,3-b]pyridin-5-yl]-3-methylmorpholine]	10 to 100	
C[C@@H]1COCCN1c1ccc2c(n1)c(-c1cc[nH]n1)nn2Cc1ccccn1 [Compound 88, (3R)-3-Methyl-4-[3-(1H-pyrazol-3-yl)-1-[(pyridin-2-yl)methyl]-1H-pyrazolo[4,3-b]pyridin-5-yl]morpholine]	1000 to 10000	
C[C@@H]1COCCN1c1cc([C@H]2CCOC2)c2c(n1)c(-c1ccn[nH]1)nn2C [Compound 72, 1-Methyl-5-((R)-3-methyl-morpholin-4-yl)-3-(2H-pyrazol-3-yl)-7-(R)-tetrahydro-furan-3-yl-1H-pyrazolo[4,3-b]pyridine]	10 to 100	
C[C@@H]1COCCN1c1cc(C2CCS(=O)(=O)CC2)c2c(n1)c(-c1ccn[nH]1)nn2C [Compound 82]	100 to 1000	
